Experimental data: ChEMBL document CHEMBL1909046, “DrugMatrix in vitro pharmacology data”

What was measured:
[1] = DRUGMATRIX: Potassium Channel [KATP] radioligand binding (ligand: [3H] Glyburide); type: cell membranes, Membrane; details: hit-t15; Not Active = under 50% inhibition at 10 µM
Insulin receptor = Insulin receptor (Rattus norvegicus, UniProt P15127); type: cell membranes, Wistar, Liver, Membrane; also: in other assays of this panel Not Active means under 50% inhibition at 10 µM
[2] = DRUGMATRIX: Purinergic P2X radioligand binding (ligand: [3H] alpha, beta-Methylene-ATP); type: cell membranes, Oryctolagus cuniculus, New Zealand albino, Urinary bladder, Membrane; details: Not Active = under 50% inhibition at 10 µM
[3] = target: T1, C-X-C chemokine receptor type 1 (Homo sapiens, UniProt P25024); also: in other assays of this panel Not Active means under 50% inhibition at 10 µM
T1 sequence (P25024 whole entry): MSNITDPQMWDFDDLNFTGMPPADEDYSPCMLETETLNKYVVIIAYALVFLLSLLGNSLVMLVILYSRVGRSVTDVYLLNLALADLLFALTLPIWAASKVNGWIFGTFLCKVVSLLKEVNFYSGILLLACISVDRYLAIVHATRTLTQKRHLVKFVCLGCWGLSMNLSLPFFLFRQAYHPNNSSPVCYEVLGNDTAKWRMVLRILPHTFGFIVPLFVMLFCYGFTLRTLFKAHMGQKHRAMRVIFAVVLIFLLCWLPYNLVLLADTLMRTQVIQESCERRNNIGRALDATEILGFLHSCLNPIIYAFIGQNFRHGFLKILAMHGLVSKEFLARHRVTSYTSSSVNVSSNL

Adenosine receptor A3 = target: T2, Adenosine receptor A3 (Homo sapiens, UniProt P0DMS8); type: cell membranes, CHO-K1, Membrane; details: for Ki: read-out: Ki;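 as to all read-outs here: radioligand binding assay with AB-MECA serving as the labeled ligand; in other assays of this panel Not Active means under 50% inhibition at 10 µM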
T2 sequence (P0DMS8 whole entry): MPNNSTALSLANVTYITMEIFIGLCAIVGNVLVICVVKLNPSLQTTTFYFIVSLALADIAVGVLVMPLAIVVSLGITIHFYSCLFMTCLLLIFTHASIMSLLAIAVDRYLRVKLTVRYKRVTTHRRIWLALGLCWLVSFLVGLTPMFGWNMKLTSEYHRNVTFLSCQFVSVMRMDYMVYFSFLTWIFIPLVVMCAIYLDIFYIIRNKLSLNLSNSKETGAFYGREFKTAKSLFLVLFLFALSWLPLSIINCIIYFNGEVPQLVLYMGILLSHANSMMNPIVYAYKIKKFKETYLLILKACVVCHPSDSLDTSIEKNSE

Nitric oxide synthase 1 = Nitric oxide synthase 1 (Rattus norvegicus, UniProt P29476); type: tissue-based, Cerebellum; also: in other assays of this panel Not Active means under 50% inhibition at 10 µM
[4] = target: Delta-type opioid receptor (Homo sapiens, UniProt P41143); type: cell membranes, HEK293, Membrane; also: in other assays of this panel Not Active means under 50% inhibition at 10 µM
Delta-type opioid receptor, sequence (P41143 whole entry): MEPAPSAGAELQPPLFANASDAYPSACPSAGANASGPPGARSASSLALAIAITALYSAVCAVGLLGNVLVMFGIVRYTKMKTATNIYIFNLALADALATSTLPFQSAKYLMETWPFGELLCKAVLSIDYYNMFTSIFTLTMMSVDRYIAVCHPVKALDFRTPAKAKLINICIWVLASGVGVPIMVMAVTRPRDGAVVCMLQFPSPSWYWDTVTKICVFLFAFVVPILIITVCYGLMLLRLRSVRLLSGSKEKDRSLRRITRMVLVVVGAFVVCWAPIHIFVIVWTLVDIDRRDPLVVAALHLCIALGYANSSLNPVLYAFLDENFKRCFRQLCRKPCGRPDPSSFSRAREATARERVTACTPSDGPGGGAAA

Insulin receptor, sequence (P15127 27-759 limits assumed): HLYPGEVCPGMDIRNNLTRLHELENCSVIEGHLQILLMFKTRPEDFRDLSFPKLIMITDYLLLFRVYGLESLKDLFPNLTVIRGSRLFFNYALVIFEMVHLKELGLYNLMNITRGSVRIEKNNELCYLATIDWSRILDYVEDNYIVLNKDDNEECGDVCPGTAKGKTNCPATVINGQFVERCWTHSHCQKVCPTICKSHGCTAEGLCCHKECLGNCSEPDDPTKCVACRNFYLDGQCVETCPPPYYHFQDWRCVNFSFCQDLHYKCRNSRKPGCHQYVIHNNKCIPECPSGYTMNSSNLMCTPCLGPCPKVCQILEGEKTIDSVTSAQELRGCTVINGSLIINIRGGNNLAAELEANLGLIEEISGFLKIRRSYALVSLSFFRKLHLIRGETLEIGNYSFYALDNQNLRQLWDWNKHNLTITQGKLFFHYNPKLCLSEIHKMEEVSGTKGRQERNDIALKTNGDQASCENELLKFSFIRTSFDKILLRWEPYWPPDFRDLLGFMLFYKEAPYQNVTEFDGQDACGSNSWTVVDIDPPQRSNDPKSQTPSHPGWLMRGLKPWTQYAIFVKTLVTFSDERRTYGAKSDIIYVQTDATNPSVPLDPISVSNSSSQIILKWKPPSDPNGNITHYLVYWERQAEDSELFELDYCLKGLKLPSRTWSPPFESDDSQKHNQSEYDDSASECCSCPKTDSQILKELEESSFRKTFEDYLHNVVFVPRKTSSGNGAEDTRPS
Insulin receptor, sequence (P15127 764-1383 limits assumed): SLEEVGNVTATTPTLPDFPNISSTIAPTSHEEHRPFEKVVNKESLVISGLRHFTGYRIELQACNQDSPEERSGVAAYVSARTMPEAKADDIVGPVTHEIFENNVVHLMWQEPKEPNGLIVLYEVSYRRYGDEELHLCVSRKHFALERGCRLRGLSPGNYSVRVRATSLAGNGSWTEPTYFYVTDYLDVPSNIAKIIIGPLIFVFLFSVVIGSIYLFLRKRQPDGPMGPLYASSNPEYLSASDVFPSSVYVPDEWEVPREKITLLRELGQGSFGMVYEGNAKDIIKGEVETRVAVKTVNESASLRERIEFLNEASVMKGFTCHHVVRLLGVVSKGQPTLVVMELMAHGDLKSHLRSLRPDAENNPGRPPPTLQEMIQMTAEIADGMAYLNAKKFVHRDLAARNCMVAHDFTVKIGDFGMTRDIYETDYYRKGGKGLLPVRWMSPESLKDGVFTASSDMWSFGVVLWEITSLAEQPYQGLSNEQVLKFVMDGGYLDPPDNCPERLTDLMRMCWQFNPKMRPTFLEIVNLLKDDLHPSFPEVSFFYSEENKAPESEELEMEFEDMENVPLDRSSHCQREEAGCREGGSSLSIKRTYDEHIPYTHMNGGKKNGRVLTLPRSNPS
Nitric oxide synthase 1, sequence (P29476 whole entry): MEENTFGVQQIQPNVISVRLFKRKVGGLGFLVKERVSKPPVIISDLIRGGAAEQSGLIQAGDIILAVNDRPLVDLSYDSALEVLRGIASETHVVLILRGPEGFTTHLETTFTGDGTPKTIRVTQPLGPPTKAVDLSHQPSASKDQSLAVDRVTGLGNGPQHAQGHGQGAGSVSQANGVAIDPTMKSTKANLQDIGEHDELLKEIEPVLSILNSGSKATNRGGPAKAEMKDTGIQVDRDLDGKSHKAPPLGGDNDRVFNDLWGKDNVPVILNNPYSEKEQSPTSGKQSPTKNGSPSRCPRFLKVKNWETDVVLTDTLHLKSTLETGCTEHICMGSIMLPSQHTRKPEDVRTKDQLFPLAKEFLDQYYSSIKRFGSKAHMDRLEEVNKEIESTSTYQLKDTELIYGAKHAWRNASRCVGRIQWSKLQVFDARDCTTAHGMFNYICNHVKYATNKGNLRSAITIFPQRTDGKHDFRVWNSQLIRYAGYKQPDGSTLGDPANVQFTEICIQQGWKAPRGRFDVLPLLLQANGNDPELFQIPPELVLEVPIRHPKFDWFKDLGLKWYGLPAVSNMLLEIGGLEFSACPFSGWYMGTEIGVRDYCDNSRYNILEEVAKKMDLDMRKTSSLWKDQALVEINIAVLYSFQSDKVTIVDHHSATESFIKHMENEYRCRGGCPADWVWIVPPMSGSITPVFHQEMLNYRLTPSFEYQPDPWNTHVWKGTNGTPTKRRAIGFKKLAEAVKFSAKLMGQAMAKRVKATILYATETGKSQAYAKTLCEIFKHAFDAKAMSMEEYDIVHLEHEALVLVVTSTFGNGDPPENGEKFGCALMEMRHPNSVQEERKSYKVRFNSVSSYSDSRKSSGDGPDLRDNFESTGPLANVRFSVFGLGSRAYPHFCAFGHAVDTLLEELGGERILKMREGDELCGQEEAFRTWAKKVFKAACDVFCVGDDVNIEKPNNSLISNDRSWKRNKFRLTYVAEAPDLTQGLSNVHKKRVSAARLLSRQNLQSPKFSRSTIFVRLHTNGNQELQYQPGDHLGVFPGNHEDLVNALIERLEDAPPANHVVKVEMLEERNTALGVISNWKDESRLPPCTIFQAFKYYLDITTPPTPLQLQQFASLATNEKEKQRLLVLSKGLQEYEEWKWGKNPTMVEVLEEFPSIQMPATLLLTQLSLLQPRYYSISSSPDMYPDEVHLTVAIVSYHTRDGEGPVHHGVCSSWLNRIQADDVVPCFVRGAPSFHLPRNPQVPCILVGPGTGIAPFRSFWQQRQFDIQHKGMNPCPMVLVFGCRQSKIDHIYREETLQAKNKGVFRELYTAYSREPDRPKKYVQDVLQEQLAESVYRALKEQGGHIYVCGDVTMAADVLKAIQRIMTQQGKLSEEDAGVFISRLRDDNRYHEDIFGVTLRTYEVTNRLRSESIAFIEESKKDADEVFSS

Row | Compound | IC50 [1] | Ki [1] | IC50 (Insulin receptor) | IC50 [2] | Ki [2] | IC50 [3] | IC50 (Adenosine receptor A3; cho-k1) | IC50 (Nitric oxide synthase 1) | IC50 ([4]; hek293) | IC50 (Adenosine receptor A3; read-out: IC50) | Ki (Adenosine receptor A3) | IC50 ([4]; read-out: IC50) | Ki ([4]; read-out: Ki)
1 | COc1cc(N)nc2[nH]c(-c3ccc(F)cc3)c(-c3ccncc3)c12 | Not Active | Not Active | Not Active | Not Active | Not Active | Not Active | Not Active | Not Active | Not Active |  |  |  | 
2 | CNS(=O)(=O)Cc1ccc2[nH]cc(CCN(C)C)c2c1 | Not Active | Not Active | Not Active | Not Active | Not Active | Not Active | Not Active | Not Active | Not Active |  |  |  | 
3 | CCCc1nn(C)c2c(=O)[nH]c(-c3cc(S(=O)(=O)N4CCN(C)CC4)ccc3OCC)nc12 | Not Active | Not Active | Not Active | Not Active | Not Active | Not Active | Not Active | Not Active | Not Active |  |  |  | 
4 | COc1ccc(/C=C/C(=O)Nc2ccccc2C(=O)O)cc1OC | Not Active | Not Active | Not Active | Not Active | Not Active | Not Active | Not Active | Not Active | Not Active |  |  |  | 
5 | CCOC(N)=O | Not Active | Not Active | Not Active | Not Active | Not Active | Not Active | Not Active | Not Active | Not Active |  |  |  | 
6 | CC(=O)Nc1nnc(S(N)(=O)=O)s1 [ACETAZOLAMIDE] |  |  | Not Active |  |  | Not Active | Not Active | Not Active | Not Active |  |  |  | 
7 | O=c1[nH]c2ccccc2n1CCCN1CCC(n2c(=O)[nH]c3cc(Cl)ccc32)CC1 [DOMPERIDONE] |  |  | Not Active |  |  | Not Active | Not Active | Not Active | Not Active |  |  |  | 
8 | CC1=C(CC(=O)O)c2cc(F)ccc2/C1=C\c1ccc(S(C)(=O)=O)cc1 [EXISULIND] | Not Active | Not Active | Not Active | Not Active | Not Active | Not Active | Not Active | Not Active | Not Active |  |  |  | 
9 | CC(C)OC(=O)C(C)(C)Oc1ccc(C(=O)c2ccc(Cl)cc2)cc1 [FENOFIBRATE] |  |  | Not Active |  |  | Not Active |  | Not Active | Not Active | 5.7 µM | 3.22 µM |  | 
10 | OCCN1CCN(CCCN2c3ccccc3Sc3ccc(C(F)(F)F)cc32)CC1 [FLUPHENAZINE] |  |  | Not Active |  |  | Not Active |  | Not Active |  | 11.9 µM | 6.75 µM | 24 µM | 8.47 µM
11 | CN1C2CCCC1CC(NC(=O)c1nn(C)c3ccccc13)C2 (stereo not given) [GRANISETRON] |  |  | Not Active |  |  | Not Active | Not Active | Not Active | Not Active |  |  |  | 
12 | Nc1nc2c(c(=O)[nH]1)N(C=O)C(CNc1ccc(C(=O)N[C@@H](CCC(=O)O)C(=O)O)cc1)CN2 (stereo not given in full) [LEUCOVORIN] | Not Active | Not Active | Not Active | Not Active | Not Active | Not Active | Not Active | Not Active | Not Active |  |  |  | 
13 | C[C@@H](O)[C@H]1C(=O)N2C(C(=O)O)=C(S[C@@H]3CN[C@H](C(=O)N(C)C)C3)[C@H](C)[C@H]12 [MEROPENEM] | Not Active | Not Active | Not Active | Not Active | Not Active | Not Active | Not Active | Not Active | Not Active |  |  |  | 
14 | CC[C@@H](CO)NC(=O)[C@@H]1C=C2c3cccc4c3c(cn4C)C[C@H]2N(C)C1 [METHYSERGIDE] |  |  | Not Active |  |  | Not Active | Not Active | Not Active | Not Active |  |  |  | 
15 | CCN(CC)CC#CCOC(=O)C(O)(c1ccccc1)C1CCCCC1 (stereo not given) [OXYBUTYNIN] |  |  | Not Active |  |  | Not Active | Not Active | Not Active | Not Active |  |  |  | 
16 | O=P(O)(O)C(O)(Cc1cccnc1)P(=O)(O)O [RISEDRONIC ACID] | Not Active | Not Active | Not Active | Not Active | Not Active | Not Active | Not Active | Not Active | Not Active |  |  |  | 
17 | CN(CCOc1ccc(CC2SC(=O)NC2=O)cc1)c1ccccn1 (stereo not given) [ROSIGLITAZONE] | Not Active | Not Active | Not Active | Not Active | Not Active | Not Active | Not Active | Not Active | Not Active |  |  |  | 
18 | C=C(C)[C@H]1Cc2c(ccc3c2O[C@@H]2COc4cc(OC)c(OC)cc4[C@@H]2C3=O)O1 [ROTENONE] | Not Active | Not Active | Not Active | Not Active | Not Active | Not Active | Not Active | Not Active | Not Active |  |  |  | 
19 | C#CCN(C)[C@H](C)Cc1ccccc1 [SELEGILINE] | Not Active | Not Active | Not Active | Not Active | Not Active | Not Active | Not Active | Not Active | Not Active |  |  |  | 
20 | CO[C@H]1C[C@@H]2CC[C@@H](C)[C@@](O)(O2)C(=O)C(=O)N2CCCC[C@H]2C(=O)O[C@H]([C@H](C)C[C@@H]2CC[C@@H](O)[C@H](OC)C2)CC(=O)[C@H](C)/C=C(\C)[C@@H](O)[C@@H](OC)C(=O)[C@H](C)C[C@H](C)/C=C/C=C/C=C/1C [SIROLIMUS] | Not Active | Not Active | Not Active | Not Active | Not Active | Not Active | Not Active | Not Active | Not Active |  |  |  | 
21 | CN[C@@H]1[C@H](O)[C@H](NC)[C@H]2O[C@@]3(O)C(=O)C[C@@H](C)O[C@H]3O[C@@H]2[C@H]1O [SPECTINOMYCIN] | Not Active | Not Active | Not Active | Not Active | Not Active | Not Active | Not Active | Not Active | Not Active |  |  |  | 
22 | Nc1ccc(S(=O)(=O)Nc2ncccn2)cc1 [SULFADIAZINE] | Not Active | Not Active | Not Active | Not Active | Not Active | Not Active | Not Active | Not Active | Not Active |  |  |  | 
23 | COc1ncnc(NS(=O)(=O)c2ccc(N)cc2)c1OC [SULFADOXINE] | Not Active | Not Active | Not Active | Not Active | Not Active | Not Active | Not Active | Not Active | Not Active |  |  |  | 
24 | Nc1ccc(S(=O)(=O)Nc2nccs2)cc1 [SULFATHIAZOLE] | Not Active | Not Active | Not Active | Not Active | Not Active | Not Active | Not Active | Not Active | Not Active |  |  |  | 
25 | C[C@]12CC[C@H]3[C@@H](CCC4=CC(=O)CC[C@@]43C)[C@@H]1CC[C@@H]2O [TESTOSTERONE] |  |  | Not Active | Not Active | Not Active | Not Active | Not Active | Not Active | Not Active |  |  |  | 
26 | CC(C)(C)NC[C@H](O)COc1nsnc1N1CCOCC1 [TIMOLOL] | Not Active | Not Active | Not Active | Not Active | Not Active | Not Active | Not Active | Not Active | Not Active |  |  |  | 
27 | CCS(=O)(=O)CCn1c([N+](=O)[O-])cnc1C [TINIDAZOLE] | Not Active | Not Active | Not Active | Not Active | Not Active | Not Active | Not Active | Not Active | Not Active |  |  |  | 
28 | C[C@@H]1C[C@H]2[C@@H]3CCC4=CC(=O)C=C[C@]4(C)C3=CC[C@]2(C)[C@H]1C(=O)CN1CCN(c2cc(N3CCCC3)nc(N3CCCC3)n2)CC1 [TIRILAZAD] | Not Active | Not Active | Not Active | Not Active | Not Active | Not Active | Not Active | Not Active | Not Active |  |  |  | 
29 | O=c1n(CCCN2CCN(c3cccc(Cl)c3)CC2)nc2ccccn12 [TRAZODONE] |  |  | Not Active |  |  | Not Active | Not Active | Not Active | Not Active |  |  |  | 
